Reference: the NIST ThermoML archive (doi:10.1021/acs.jced.7b01024)
Numbers after ± are expanded uncertainties.

Test: Boiling temperature at pressure P
Settings: 101.3 kPa; Liquid; Ebulliometric method (Recirculating still)
With CC(=O)OCC(C)C [2-methylpropyl ethanoate] the “Boiling temperature at pressure P” value was 116.60 ± 0.2 °C.
For C=CCO [2-propenol], the “Boiling temperature at pressure P” value was 96.8 ± 0.44 °C.
With CCCCOC(C)=O [butyl ethanoate] the “Boiling temperature at pressure P” value was 126.00 ± 0.2 °C.
For CCCCOC(=O)CC [butyl propanoate], the “Boiling temperature at pressure P” value was 145.10 ± 0.2 °C.
